Test results published in patent publication US6737256B2, “Overcoming DAPA aminotransferase bottlenecks in biotin vitamers biosynthesis” (Roche Vitamins Inc., priority 1997, dated 2004).
Like-named read-outs stand apart in the source and are kept apart here.

Assays:
[1] = target: T1, B. subtilis DAPA aminotransferase (Bacillus subtilis, UniProt P53555); type: biochemical; settings: for DAPA aminotransferase specfic activity: compound added to extract of BI611; for function as amino donor with the B. subtilis enzyme / stimulation of DAPA aminotransferase activity: result in words; for stimulation of DAPA aminotransferase activity: dialyzed BI611 extract
T1 construct: A cell free extract prepared from a B. subtilis strain deleted for the bio operon but containing multiple copies (4-6) of the B. subtilis bioA gene; made in house; host or cells: B. subtilis BI611 (Δbio:cat, bpr:[P26bioA]4-6), cell-free extract (dialyzed for A1, crude for A2)
T1 sequence (P53555 1-448): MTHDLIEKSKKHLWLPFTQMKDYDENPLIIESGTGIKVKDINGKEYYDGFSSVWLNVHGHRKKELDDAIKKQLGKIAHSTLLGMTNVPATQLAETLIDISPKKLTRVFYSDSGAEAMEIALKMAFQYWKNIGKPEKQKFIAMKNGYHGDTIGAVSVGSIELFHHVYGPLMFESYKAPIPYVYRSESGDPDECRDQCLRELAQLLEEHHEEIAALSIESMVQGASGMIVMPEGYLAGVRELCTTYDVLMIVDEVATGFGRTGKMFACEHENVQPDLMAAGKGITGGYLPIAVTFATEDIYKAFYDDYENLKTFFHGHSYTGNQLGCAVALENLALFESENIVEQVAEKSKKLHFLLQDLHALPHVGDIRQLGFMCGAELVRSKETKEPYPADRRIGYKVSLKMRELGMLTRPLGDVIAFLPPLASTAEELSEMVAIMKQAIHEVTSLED
Protocol: The assay for DAPA aminotransferase is described by Eisenberg and Stoner in 1971 (J. Bacteriol. 108:1135-1140). In this assay, the substrate KAPA is incubated with S-adenosylmethionine (SAM) in the presence of the cofactor pyridoxal 5′-phosphate and cell extract. We measured the amount of DAPA produced in a plate bioassay utilizing an E. coli bioA strain. Streptavidin (8 μg/ml) was added to the assay mix because extracts of many of the strains to be assayed contained significant amounts of biotin and dethiobiotin which fed the E. coli indicator strain used in the bioassay. Contamination by trace amounts of biotin and dethiobiotin was also removed from the KAPA preparation used as substrate by passing the material over an avidin-agarose column. The E. coli bioA109 strain (MEC1) was used to measure DAPA aminotransferase activity in the bioassay. […] Eisenberg's DAPA-sensitive strain was obtained from the E. coli Genetic Stock Center at Yale University.
To determine whether B. subtilis DAPA aminotransferase activity could be stimulated by addition of other amino donors to the reaction mix, various amino donors were screened for their ability to stimulate enzyme activity in vitro. A cell free extract prepared from a B. subtilis strain deleted for the bio operon but containing multiple copies (4-6) of the B. subtilis bioA gene transcribed from a phage SP01-26 promoter with the cassette integrated at the bpr locus, BI611 (Δbio:cat, bpr:[P26bioA]4-6), was dialyzed to remove any endogenous levels of the amino donor and the extract was assayed in the presence of each of the standard amino acids and several other amine compounds. […] In a subsequent experiment, various lysine derivatives and analogs were tested for stimulation of activity (Table 2). […] The structure of (S)-2-aminoethyl-L-cysteine is identical to L-lysine except that the γ carbon has been replaced by a sulfur atom.

[2] = target: T2, E. coli DAPA aminotransferase (Escherichia coli, UniProt P12995); settings: cited from earlier work; for Km: Stoner and Eisenberg 1975
[3] = target: T1, B. subtilis DAPA aminotransferase; test: Kinetic studies of B. subtilis DAPA aminotransferase (crude cell-free extract of BI611); type: biochemical; settings: for Km: crude cell-free extract of BI611
Protocol: (§1) The assay for DAPA aminotransferase is described by Eisenberg and Stoner in 1971 (J. Bacteriol. 108:1135-1140). In this assay, the substrate KAPA is incubated with S-adenosylmethionine (SAM) in the presence of the cofactor pyridoxal 5′-phosphate and cell extract. We measured the amount of DAPA produced in a plate bioassay utilizing an E. coli bioA strain. Streptavidin (8 μg/ml) was added to the assay mix because extracts of many of the strains to be assayed contained significant amounts of biotin and dethiobiotin which fed the E. coli indicator strain used in the bioassay. Contamination by trace amounts of biotin and dethiobiotin was also removed from the KAPA preparation used as substrate by passing the material over an avidin-agarose column. The E. coli bioA109 strain (MEC1) was used to measure DAPA aminotransferase activity in the bioassay. This E.coli bioA strain, developed for the assay by Eisenberg, was reported to be many times more sensitive to DAPA than any other bioA mutant. Eisenberg's DAPA-sensitive strain was obtained from the E. coli Genetic Stock Center at Yale University.
The kinetic properties of B. subtilis DAPA aminotransferase were investigated using a crude cell-free extract prepared from BI611 (Δbio:cat, bpr:[P26bioA]4-6). […] The conversion of substrate to product was approximately 10 to 40% in 20 minutes. […] The pH optimum for the transamination reaction was determined to be pH 8.6. […] The […] enzyme was subject to inhibition by KAPA at levels above 20 μM. […] The enzyme became saturated for lysine at concentrations between 20 and 40 mM.
The substrate inhibition of B. subtilis DAPA aminotransferase by KAPA provides evidence for a double displacement or ping-pong reaction mechanism, as has been shown for E.coli DAPA aminotransferase (Stoner et al., J. Biol. Chem. 250:4037-4043, 1975). KAPA concentration was varied at four different fixed lysine concentrations, and initial velocity data was collected and plotted in a double reciprocal form. […]

[4] = target: T3, S. marcescens DAPA aminotransferase (Serratia marcescens, UniProt P36568); test: DAPA aminotransferase assay of extracts of B. subtilis strains containing S. marcescens bioA; type: biochemical; settings: strains lacking native bioA, with S. marcescens bioA
T3 construct: made in house; host or cells: B. subtilis strain lacking the native bioA gene, carrying S. marcescens bioA; cell extract
Protocol: as §1
(§2) The enzyme reaction was approximately linear with time for at least 60 minutes. […] Enzyme activity was destroyed by boiling the extract, or freezing and thawing, although freezing the extract in the presence of 10% DMSO appeared to stabilize the enzyme. […]

[5] = target: T1, B. subtilis DAPA aminotransferase; test: DAPA aminotransferase assay of BI282 extract, dependence on SAM; type: biochemical
Protocol: as §1
A B. subtilis strain, BI282, engineered to overexpress B. subtilis BioA protein was assayed for DAPA aminotransferase activity: BI282 contains a P15 bio cassette amplified at the bio locus (described in Patent Application 0635572A2). […]

[6] = target: T2, E. coli DAPA aminotransferase; test: DAPA aminotransferase assay of extracts of B. subtilis strains containing E. coli bioA; type: biochemical; settings: strains lacking native bioA, with E. coli bioA
Protocol: as §1, §2

[7] = test system: B. subtilis strains, PY79, BI282, and BI603; test: Sensitivity of B. subtilis strains to lysine analogs on minimal medium; type: cell-based; settings: minimal medium with no additive, with threonine, or with DAP plus threonine
Protocol: Three out of the four classical cases of lysine deregulated mutants were isolated by selecting for lysine analog resistance. B. subtilis strains, PY79 (Youngman et al., Plasmid 12:1-9, 1984), BI282, and BI603 were tested for sensitivity to four lysine analogs, on minimal medium with no additive, with threonine, or with DAP plus threonine. The purpose of the additives was to focus the selection on the lysC gene, that encodes the lysine sensitive aspartokinase II. […] All three strains behaved similarly; all were sensitive to AEC in all three media.

T2 sequence (P12995 whole entry): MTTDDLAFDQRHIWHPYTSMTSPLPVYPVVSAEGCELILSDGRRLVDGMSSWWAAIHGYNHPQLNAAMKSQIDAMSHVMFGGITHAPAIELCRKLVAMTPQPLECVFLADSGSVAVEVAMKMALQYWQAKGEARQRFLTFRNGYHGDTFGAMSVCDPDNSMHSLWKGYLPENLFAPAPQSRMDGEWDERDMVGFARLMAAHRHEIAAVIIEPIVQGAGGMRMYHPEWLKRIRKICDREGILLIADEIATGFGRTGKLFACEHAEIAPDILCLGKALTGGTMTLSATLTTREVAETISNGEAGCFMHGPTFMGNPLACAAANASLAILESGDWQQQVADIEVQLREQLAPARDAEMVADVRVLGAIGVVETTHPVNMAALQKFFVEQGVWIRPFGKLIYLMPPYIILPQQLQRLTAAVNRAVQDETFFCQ
T3 sequence (P36568 whole entry): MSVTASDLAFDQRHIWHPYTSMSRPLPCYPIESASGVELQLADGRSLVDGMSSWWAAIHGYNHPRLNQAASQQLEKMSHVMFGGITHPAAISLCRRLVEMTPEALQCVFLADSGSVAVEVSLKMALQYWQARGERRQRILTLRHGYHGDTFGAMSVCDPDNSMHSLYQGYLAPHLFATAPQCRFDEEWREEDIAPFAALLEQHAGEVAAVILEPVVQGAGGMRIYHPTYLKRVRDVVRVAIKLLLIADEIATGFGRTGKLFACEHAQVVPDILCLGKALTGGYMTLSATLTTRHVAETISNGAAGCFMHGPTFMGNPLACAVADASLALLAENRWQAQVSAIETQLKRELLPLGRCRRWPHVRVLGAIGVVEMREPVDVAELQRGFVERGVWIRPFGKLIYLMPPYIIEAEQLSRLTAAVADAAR

NCCCCC(N)C(=O)O (racemic) [DL-lysine (>98%), DL-lysine]
DAPA aminotransferase specfic activity [1]: 0.35 nmol/min/mg

NCCCC[C@@H](N)C(=O)O [D-lysine]
DAPA aminotransferase specfic activity [1]: 0.19 nmol/min/mg | function as amino donor with the B. subtilis enzyme [1]: function as amino donors

CC(N)C(=O)CCCCCC(=O)O (stereo not shown) [KAPA, 8-amino-7-ketopelargonic acid]
KAPA level above which enzyme was subject to inhibition ([2]; Eisenberg and Stoner 1971): above 20 μM | Km ([2]; read-out: Km for KAPA): 1.2 µM | Km ([3]; read-out: apparent Km for KAPA): 1 to 5 µM | KAPA concentration above which inhibition of activity was observed ([3]; lysine constant at 19 mM): above 80 μM

NCCCC[C@H](N)C(=O)O [L-lysine]
DAPA aminotransferase specfic activity ([1]; listed as L-lysine (>98%)): 0.76 nmol/min/mg | DAPA aminotransferase specfic activity ([1]; listed as L-lysine (>99%)): 0.56 nmol/min/mg | function as amino donor with the B. subtilis enzyme [1]: function as amino donors | stimulation of DAPA aminotransferase activity ([1]; listed as L-lysine hydrochloride): stimulated DAPA aminotransferase activity | stimulation of DAPA aminotransferase activity ([1]; listed as L-lysine(>99% pure)): stimulate activity | Km ([3]; read-out: apparent Km for lysine): 2000 to 25000 µM

CC(=O)N[C@@H](CCCCN)C(=O)O [Nα-acetyl-L-lysine]
DAPA aminotransferase specfic activity [1]: 0 nmol/min/mg

CC(=O)NCCCC[C@H](N)C(=O)O [Nε-acetyl-L-lysine]
DAPA aminotransferase specfic activity [1]: 0 nmol/min/mg

CNCCCC[C@H](N)C(=O)O [Nε-methyl-L-lysine]
DAPA aminotransferase specfic activity [1]: 0 nmol/min/mg

C[S+](CC[C@H](N)C(=O)O)C[C@H]1O[C@@H](n2cnc3c(N)ncnc32)[C@H](O)[C@@H]1O (stereo partly shown) [SAM, S-adenosylmethionine]
function as amino donor with the B. subtilis enzyme [1]: not a significant amino donor | dependence of enzyme activity on presence of SAM [4]: dependent on the presence of exogenous SAM | Km ([2]; purified E. coli enzyme, read-out: Km for SAM): 200 µM | dependence of enzyme activity on presence of SAM [5]: not dependent on the presence of SAM | dependence of enzyme activity on presence of SAM [6]: dependent on the presence of exogenous SAM

N[C@H](CCC[C@H](N)C(=O)O)C(=O)O [diaminopimelic acid]
DAPA aminotransferase specfic activity [1]: 0 nmol/min/mg

(S)-2-aminoethyl-L-cysteine
DAPA aminotransferase specfic activity [1]: 0.48 nmol/min/mg | function as amino donor with the B. subtilis enzyme [1]: function as amino donors | stimulation of DAPA aminotransferase activity [1]: stimulate activity | inhibition of growth [7]: inhibited growth

gly-lys
DAPA aminotransferase specfic activity [1]: 0 nmol/min/mg

lys-gly
DAPA aminotransferase specfic activity [1]: 0 nmol/min/mg
